The experiment addresses T1, Xenopus interphotoreceptor retinoid-binding protein (xIRBP) (Xenopus laevis, UniProt Q7SZI7).
T1 construct: gene rbp3; recombinant full-length four-module xIRBP (1197 amino acids; 131 kDa), free of its thioredoxin fusion partner; vector-derived N-terminal G-L-G-D-P
Kind of experiment: fluorescence titration: retinol fluorescence enhancement (also tryptophan quenching, Kd […], and energy transfer, Kd […]).

T1 sequence (Q7SZI7 23-1219): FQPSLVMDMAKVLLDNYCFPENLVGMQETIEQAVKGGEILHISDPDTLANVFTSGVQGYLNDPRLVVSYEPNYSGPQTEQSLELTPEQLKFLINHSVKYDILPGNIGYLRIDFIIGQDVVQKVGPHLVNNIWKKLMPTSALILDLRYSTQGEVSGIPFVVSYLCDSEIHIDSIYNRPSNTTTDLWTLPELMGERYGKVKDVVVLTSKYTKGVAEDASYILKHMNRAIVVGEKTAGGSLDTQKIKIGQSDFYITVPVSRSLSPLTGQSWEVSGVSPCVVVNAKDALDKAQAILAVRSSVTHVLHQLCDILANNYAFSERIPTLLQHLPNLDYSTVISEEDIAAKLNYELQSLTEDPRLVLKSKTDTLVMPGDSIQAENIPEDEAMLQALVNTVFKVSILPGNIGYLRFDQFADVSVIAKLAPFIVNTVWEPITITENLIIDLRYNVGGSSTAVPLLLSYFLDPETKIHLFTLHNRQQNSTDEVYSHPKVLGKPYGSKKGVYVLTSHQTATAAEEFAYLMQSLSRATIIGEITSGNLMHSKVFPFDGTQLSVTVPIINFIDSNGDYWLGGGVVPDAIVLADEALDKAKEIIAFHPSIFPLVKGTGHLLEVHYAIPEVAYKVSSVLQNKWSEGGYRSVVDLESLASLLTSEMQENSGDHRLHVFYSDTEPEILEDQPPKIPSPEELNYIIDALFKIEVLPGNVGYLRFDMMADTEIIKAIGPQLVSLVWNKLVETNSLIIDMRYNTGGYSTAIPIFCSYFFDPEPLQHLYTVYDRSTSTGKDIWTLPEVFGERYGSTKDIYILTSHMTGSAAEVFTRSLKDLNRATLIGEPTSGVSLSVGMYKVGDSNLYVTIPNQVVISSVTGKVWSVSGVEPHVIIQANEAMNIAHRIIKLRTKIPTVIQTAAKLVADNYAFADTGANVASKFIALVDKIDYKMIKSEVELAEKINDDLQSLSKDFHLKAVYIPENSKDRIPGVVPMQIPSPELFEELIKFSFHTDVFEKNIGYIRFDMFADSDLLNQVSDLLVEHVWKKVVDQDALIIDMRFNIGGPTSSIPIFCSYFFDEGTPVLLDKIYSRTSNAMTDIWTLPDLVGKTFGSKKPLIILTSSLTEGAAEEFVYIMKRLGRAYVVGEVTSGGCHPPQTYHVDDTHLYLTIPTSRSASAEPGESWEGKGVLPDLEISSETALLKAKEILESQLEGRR

On to `CC1=C(/C=C/C(C)=C/C=C/C(C)=C/CO)C(C)(C)CCC1` [all-trans retinol], for which the Kd came to 0.15 ± 0.03 µM.

The record behind these values is publication PMC2185538, “Purification of the full-length Xenopus interphotoreceptor retinoid binding protein and growth of diffraction-quality crystals” (Molecular Vision, 2007).
